Assay results published in patent publication US20250312499A1, “KISSPEPTIN RECEPTOR (KISS1R) TARGETED THERAPEUTICS AND USES THEREOF” (priority 2024, published 2025).
Numbered stars: 1 amine (or outer) side, 2 acyl side, 3 side chain; on linkers, the order of the positions; unused ones are H or OH. Square brackets hold non-standard residues; d marks the D form. Peptide text beside a SMILES is read from it. * marks the point of attachment. DOTA = O=C(O)CN1CCN(CC(=O)O)CCN(CC(=O)*)CCN(CC(=O)O)CC1; Gly(N-(3-F-4-Me-benzyl)) = Cc1ccc(CNCC(=O)*)cc1F; X11 = O=C(c1ccc(-c2ccccc2)c(OCCN[*:1])c1)[*:2]; Api(1-amidino) = N=C(N)N1CCC(N)(C(=O)O)CC1; Hydrocinnamoyl(4-Me) = Cc1ccc(CCC(=O)*)cc1; Bip = N[C@@H](Cc1ccc(-c2ccccc2)cc1)C(=O)O; Hydrocinnamoyl(4-I) = O=C(CCc1ccc(I)cc1)*; Phe(3-F) = N[C@@H](Cc1cccc(F)c1)C(=O)O; 2Nal = N[C@@H](Cc1ccc2ccccc2c1)C(=O)O; d2Nal = N[C@H](Cc1ccc2ccccc2c1)C(=O)O; Palmitoyl = CCCCCCCCCCCCCCCC(=O)*; Trx = NC[C@H]1CC[C@H](C(=O)O)CC1; X1 = O=C(CN1CCC(N[*:1])CC1)[*:2]; 2Thi = N[C@@H](Cc1cccs1)C(=O)O; Cha = N[C@@H](CC1CCCCC1)C(=O)O; 4Abz = Nc1ccc(C(=O)O)cc1; Api = NC1(C(=O)O)CCNCC1; PEG2 = NCCOCCOCCC(=O)O; Ahx = NCCCCCC(=O)O; azaGly = NNC(=O)O

The compounds below were run against human kisspeptin receptor (Homo sapiens (Human), UniProt Q969F8) (assay: Human KISS1R binding assay (membrane competition binding)). Conditions: 90 min at room temperature; competition with 0.2 nM [125I]-metastin (45-54); Flp-In T-Rex 293 kisspeptin membranes; metal complexes nonradioactive Ga, In, Lu; read-out: hKiSSR Binding Ki (90 min).
human kisspeptin receptor, sequence (Q969F8 whole entry): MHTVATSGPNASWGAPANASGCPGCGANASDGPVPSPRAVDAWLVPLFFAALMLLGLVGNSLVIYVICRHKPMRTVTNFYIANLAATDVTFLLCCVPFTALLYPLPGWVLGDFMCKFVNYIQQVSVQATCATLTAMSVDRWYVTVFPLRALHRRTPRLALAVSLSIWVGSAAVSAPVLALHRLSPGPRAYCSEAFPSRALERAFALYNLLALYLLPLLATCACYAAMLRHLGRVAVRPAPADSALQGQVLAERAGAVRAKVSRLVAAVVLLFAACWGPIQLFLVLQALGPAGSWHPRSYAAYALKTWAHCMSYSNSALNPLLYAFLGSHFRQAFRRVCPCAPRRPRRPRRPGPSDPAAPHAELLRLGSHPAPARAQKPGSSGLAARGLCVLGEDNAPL
Summary of the method: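 Radioligand competition: 0.2 nM [125I]-metastin (45-54) displaced by test ligand (usually 0–10,000 nM) over 90 min at room temperature, pH 7.4 buffer with 0.1% BSA. Receptor source is crude membrane (5–10 μg) from tetracycline-induced Flp-In T-Rex 293 cells. Bound label filtered and counted; Ki from non-linear regression.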
For `CCCCCCCCCCCCCCCC(=O)N[C@H](Cc1ccc(O)cc1)C(=O)N[C@@H](CCCCNC(=O)CN1CCN(CC(=O)O)CCN(CC(=O)O)CCN(CC(=O)O)CC1)C(=O)N[C@@H](CC(N)=O)C(=O)N[C@H](C(=O)N[C@@H](Cc1ccccc1)C(=O)NNC(=O)N[C@@H](CC(C)C)C(=O)NC1(C(=O)N[C@@H](Cc2ccc(O)cc2)C(N)=O)CCN(C(=N)N)CC1)[C@@H](C)O` [Compound 330] (Palmitoyl-[dY]K(DOTA)NTF[azaGly]L[Api(1-amidino)]Y-NH2), the Ki was under 10 nM. Compound `Cc1ccc(CNCC(=O)N2CCC(NC(=O)[C@H](CC(C)C)NC(=O)NNC(=O)[C@H](Cc3cccc(F)c3)NC(=O)[C@@H](NC(=O)[C@H](CC(N)=O)NC(=O)[C@H](CCC(=O)O)NC(=O)[C@@H](Cc3ccc(O)cc3)NC(=O)CCCCCNC(=O)CN3CCN(CC(=O)O)CCN(CC(=O)O)CCN(CC(=O)O)CC3)[C@@H](C)O)(C(=O)N[C@@H](Cc3c[nH]c4ccccc34)C(N)=O)CC2)cc1F` [Compound 36] ({DOTA-Ahx}-[dY]ENT[Phe(3-F)][azaGly]L[Api](Gly(N-(3-F-4-Me-benzyl)))W-NH2) has a Ki of under 10 nM. Compound `Cc1ccc(CNCC(=O)N2CCC(NC(=O)c3ccc(-c4ccccc4)c(OCCNC(=O)[C@H](Cc4ccccc4)NC(=O)[C@@H](NC(=O)[C@H](CC(N)=O)NC(=O)[C@@H](Cc4c[nH]c5ccccc45)NC(=O)[C@@H](Cc4ccc(O)cc4)NC(=O)CCCCCNC(=O)CN4CCN(CC(=O)O)CCN(CC(=O)O)CCN(CC(=O)O)CC4)[C@@H](C)O)c3)(C(=O)N[C@@H](Cc3c[nH]c4ccccc34)C(N)=O)CC2)cc1F` [Compound 279] ({DOTA-Ahx}-[dY][dW]NTF[X11][Api](Gly(N-(3-F-4-Me-benzyl)))W-NH2) has a Ki of under 10 nM. For `CC(C)C[C@H](NC(=O)NNC(=O)[C@H](CC1CCCCC1)NC(=O)[C@@H](NC(=O)[C@H](CC(N)=O)NC(=O)[C@H](CCCCNC(=O)CN1CCN(CC(=O)O)CCN(CC(=O)O)CCN(CC(=O)O)CC1)NC(=O)[C@@H](Cc1ccc(O)cc1)NC(=O)CCOCCOCCNC(=O)CCc1ccc(I)cc1)[C@@H](C)O)C(=O)NC1(C(=O)N[C@@H](Cc2c[nH]c3ccccc23)C(N)=O)CCN(C(=N)N)CC1` [Compound 327] ({Hydrocinnamoyl(4-I)-PEG2}-[dY]K(DOTA)NT[Cha][azaGly]L[Api(1-amidino)]W-NH2), the Ki was under 10 nM. `Cc1ccc(CNCC(=O)N2CCC(NC(=O)[C@H](CC(C)C)NC(=O)NNC(=O)[C@H](Cc3ccccc3)NC(=O)c3ccc(NC(=O)CN4CCN(CC(=O)O)CCN(CC(=O)O)CCN(CC(=O)O)CC4)cc3)(C(=O)N[C@@H](Cc3c[nH]c4ccccc34)C(N)=O)CC2)cc1F` [Compound 50] ({DOTA-4Abz}-F[azaGly]L[Api](Gly(N-(3-F-4-Me-benzyl)))W-NH2) showed a Ki of under 10 nM. For `Cc1ccc(CNCC(=O)N2CCC(NC(=O)[C@H](CC(C)C)NC(=O)NNC(=O)[C@H](Cc3ccccc3)NC(=O)[C@H]3CC[C@H](CNC(=O)[C@@H](CCC(=O)O)NC(=O)CN4CCN(CC(=O)O)CCN(CC(=O)O)CCN(CC(=O)O)CC4)CC3)(C(=O)N[C@@H](Cc3c[nH]c4ccccc34)C(N)=O)CC2)cc1F` [Compound 166] ({DOTA}-[dE][Trx]F[azaGly]L[Api](Gly(N-(3-F-4-Me-benzyl)))W-NH2), the Ki was under 10 nM. For `Cc1ccc(CNCC(=O)N2CCC(NC(=O)[C@H](CC(C)C)NC(=O)NNC(=O)[C@H](Cc3ccccc3)NC(=O)[C@@H](NC(=O)[C@H](CC(N)=O)NC(=O)[C@@H](Cc3ccc4ccccc4c3)NC(=O)[C@@H](Cc3ccc(O)cc3)NC(=O)CCCCCNC(=O)CN3CCN(CC(=O)O)CCN(CC(=O)O)CCN(CC(=O)O)CC3)[C@@H](C)O)(C(=O)N[C@@H](Cc3ccc(O)cc3)C(N)=O)CC2)cc1F` [Compound 367] ({DOTA-Ahx}-[dY][d2Nal]NTF[azaGly]L[Api](Gly(N-(3-F-4-Me-benzyl)))Y-NH2), the Ki was under 10 nM. For `Cc1ccc(CNCC(=O)N2CCC(NC(=O)[C@H](CC(C)C)NC(=O)NNC(=O)[C@H](Cc3cccs3)NC(=O)[C@@H](NC(=O)[C@H](CC(N)=O)NC(=O)[C@H](CCC(=O)O)NC(=O)CN3CCC(NC(=O)CN4CCN(CC(=O)O)CCN(CC(=O)O)CCN(CC(=O)O)CC4)CC3)[C@@H](C)O)(C(=O)N[C@@H](Cc3c[nH]c4ccccc34)C(N)=O)CC2)cc1F` [Compound 218] ({DOTA}-[X1]ENT[2Thi][azaGly]L[Api](Gly(N-(3-F-4-Me-benzyl)))W-NH2), the Ki was under 10 nM. `Cc1ccc(CNCC(=O)N2CCC(NC(=O)[C@H](CC(C)C)NC(=O)NNC(=O)[C@H](Cc3ccccc3)NC(=O)CCCCCNC(=O)[C@H](Cc3ccc4ccccc4c3)NC(=O)[C@H](Cc3ccc(O)cc3)NC(=O)CNC(=O)CN3CCN(CC(=O)O)CCN(CC(=O)O)CCN(CC(=O)O)CC3)(C(=O)N[C@@H](Cc3c[nH]c4ccccc34)C(N)=O)CC2)cc1F` [Compound 307] ({DOTA}-GY[2Nal][Ahx]F[azaGly]L[Api](Gly(N-(3-F-4-Me-benzyl)))W-NH2) gave a Ki of under 10 nM. With `CC(C)C[C@H](NC(=O)NNC(=O)[C@H](Cc1ccc(-c2ccccc2)cc1)NC(=O)[C@@H](NC(=O)[C@H](CC(N)=O)NC(=O)[C@@H](Cc1c[nH]c2ccccc12)NC(=O)[C@@H](Cc1ccc(O)cc1)NC(=O)CCCCCNC(=O)CN1CCN(CC(=O)O)CCN(CC(=O)O)CCN(CC(=O)O)CC1)[C@@H](C)O)C(=O)NC1(C(=O)N[C@@H](Cc2c[nH]c3ccccc23)C(N)=O)CCN(C(=N)N)CC1` [Compound 271] ({DOTA-Ahx}-[dY][dW]NT[Bip][azaGly]L[Api(1-amidino)]W-NH2) the Ki was 10 to 100 nM. In the case of `Cc1ccc(CNCC(=O)N2CCC(NC(=O)[C@H](CC(C)C)NC(=O)NNC(=O)[C@H](Cc3cccc(F)c3)NC(=O)[C@@H](NC(=O)[C@H](CC(N)=O)NC(=O)[C@H](CCC(=O)O)NC(=O)[C@H]3CC[C@H](CNC(=O)CN4CCN(CC(=O)O)CCN(CC(=O)O)CCN(CC(=O)O)CC4)CC3)[C@@H](C)O)(C(=O)N[C@@H](Cc3c[nH]c4ccccc34)C(N)=O)CC2)cc1F` [Compound 160] ({DOTA-Trx}-ENT[Phe(3-F)][azaGly]L[Api](Gly(N-(3-F-4-Me-benzyl)))W-NH2), the Ki is reported as under 10 nM. `Cc1ccc(CNCC(=O)N2CCC(NC(=O)[C@H](CC(C)C)NC(=O)NNC(=O)[C@H](Cc3ccc(-c4ccccc4)cc3)NC(=O)CN3CCC(NC(=O)CN4CCN(CC(=O)O)CCN(CC(=O)O)CCN(CC(=O)O)CC4)CC3)(C(=O)N[C@@H](Cc3c[nH]c4ccccc34)C(N)=O)CC2)cc1F` [Compound 142] ({DOTA}-[X1][Bip][azaGly]L[Api](Gly(N-(3-F-4-Me-benzyl)))W-NH2) gave a Ki of under 10 nM. In the case of `Cc1ccc(CCC(=O)NCCOCCOCCC(=O)N[C@H](Cc2ccc(O)cc2)C(=O)N[C@H](CCCCNC(=O)CN2CCN(CC(=O)O)CCN(CC(=O)O)CCN(CC(=O)O)CC2)C(=O)N[C@@H](CC(N)=O)C(=O)N[C@H](C(=O)N[C@@H](Cc2ccccc2)C(=O)NNC(=O)N[C@@H](CC(C)C)C(=O)NC2(C(=O)N[C@@H](Cc3c[nH]c4ccccc34)C(N)=O)CCN(C(=N)N)CC2)[C@@H](C)O)cc1` [Compound 338] ({Hydrocinnamoyl(4-Me)-PEG2}-[dY][dK](DOTA)NTF[azaGly]L[Api(1-amidino)]W-NH2), the Ki is reported as under 10 nM. With `Cc1ccc(CNCC(=O)N2CCC(NC(=O)[C@H](CC(C)C)NC(=O)NNC(=O)[C@H](Cc3ccccc3)NC(=O)CCCCCNC(=O)[C@H](Cc3ccc4ccccc4c3)NC(=O)[C@@H](Cc3ccc(O)cc3)NC(=O)CN3CCN(CC(=O)O)CCN(CC(=O)O)CCN(CC(=O)O)CC3)(C(=O)N[C@@H](Cc3c[nH]c4ccccc34)C(N)=O)CC2)cc1F` [Compound 285] ({DOTA}-[dY][2Nal][Ahx]F[azaGly]L[Api](Gly(N-(3-F-4-Me-benzyl)))W-NH2) the Ki was under 10 nM.
